Data published in ChEMBL document CHEMBL1139389, “Discovery of the Poly(ADP-ribose) polymerase (PARP) inhibitor 2-[(R)-2-methylpyrrolidin-2-yl]-1H-benzimidazole-4-carboxamide (ABT-888) for the treatment of cancer” (J Med Chem, 2009).

Test system: MX1
Experiment: animal or person
Conditions: Mus musculus, MX1, ip, 816 h, read-out: TGI

O=P1(N(CCCl)CCCl)NCCCO1 (stereo unspecified) [CYCLOPHOSPHAMIDE ANHYDROUS]
inhibition in vivo at 12.5 mg/kg/day: 73%
